Results as given in US12622918B2, “Formulations and dosages for administering a compound that inhibits MCL1 protein” (Amgen Inc., priority 2019, dated 2026).

Test system: OPM2-Luc orthotopic tumors
Assay: OPM2-Luc multiple myeloma orthotopic model, AMG 176 plus carfilzomib
Assay type: in vivo
Details: carfilzomib 3 mg/kg IV twice weekly
Procedure: On day 0, female NSG mice were injected IV with 1×10^6 OPM2-Luc human OPM2-Luc multiple myeloma tumor cells transfected with the firefly luciferase gene.

CC(C)C[C@H](NC(=O)[C@H](CCc1ccccc1)NC(=O)CN1CCOCC1)C(=O)N[C@@H](Cc1ccccc1)C(=O)N[C@@H](CC(C)C)C(=O)[C@@]1(C)CO1 [carfilzomib]
TGI (tumor burden) (AMG 176 20 mg/kg orally once daily, day 4 until day 20, female NSG mice): 82%
tolerability (NSG mice): Unscheduled deaths
